Source: patent US11364258B2, “Methods for treating chondrosarcoma using microrna(miR)” (Rhode Island Hospital, priority 2016, dated 2022)

Columns and labels:
[1] = system: metastasis; conditions: literature (Sun et al. 2013; Smith et al. 2004); cited from earlier work
[2] = system: SSX1; assay: qRT-PCR of SSX1 mRNA in chondrosarcoma cells; assay type: cell-based, human; conditions: 20 nM; vs control cells or anti-miR-34a; FIG. 10A
Procedure: qRT-PCR: miR expression evaluated with qRT-PCR using Hs_miR-181a primer 5′-AACAUUCAACGCUGU-CGGUGAGU-3′ (SEQ ID NO:198) and 1280: 5′UCCCACCGCUGCCACCC-3′ (SEQ ID NO:199) (Qiagen). The comparative threshold cycle (Ct) method, i.e., 2-ΔΔCt method is used to calculate fold amplification. For quantification of mRNA, total RNA was isolated from chondrocytes, CS-1 cells, and xenograft mouse tumors using the RNAqueous® Kit (Ambion, Austin, Tex., USA). SYBR real-time PCR was carried out using two-step real-time qRT-PCR (Qiagen) with normalization to 18S rRNA (18S). The comparative threshold cycle (Ct) method, i.e., the 2-ΔΔCt method, was used for the calculation of fold amplification. Each experiment was evaluated with three PCR reactions and each experiment was repeated three times, the sample size necessary to maintain power at 0.80 to detect a 50% decrease with an alpha of 0.025 (one-tailed t-test).
ELISA, western blot, qRT-PCR, and cell proliferation assays were performed as described above.

[3] = system: VEGF; assay: ELISA of VEGF expression in chondrosarcoma cells after transfection; assay type: cell-based, human
Procedure: (§1) Cell lines: Human primary chondrocytes and chondrosarcoma cell lines were cultured as previously described (Kulshreshtha et al., Cell Cycle. 2007; 6:1426-1431). CS-1 (a gift from Dr. Francis Hornicek, Harvard Medical School, Boston, Mass.) was cultured in Gibco RPMI 1640 Medium (Life Technologies, Grand Island, N.Y.), with 10% FBS in a humidified incubator (NuAire Inc, Plymouth, Minn.) under 5% CO2 and either normoxia (ambient oxygen) or hypoxia (2% O2)(11). CS-1 was derived from human grade III chondrosarcoma and metastasizes in a xenograft mouse model(Susa M, Morii T, Yabe H, Horiuchi K, Toyama Y, Weissbach L, et al. Alendronate inhibits growth of high-grade chondrosarcoma cells. Anticancer Res. 2009 June; 29(6):1879-88.). All cells were cultured in a humidified incubator (NuAire Inc, Plymouth, Minn., USA) under 5% CO2 and either normoxia or hypoxia (2% O2) (Lin et al., J Orthop Res. 2004; 22:1175-1181).
Transfections were performed with GenMute transfection reagent (SignaGen Laboratories, Gaithersburg, Md.). pmiRZIP lentivector expressing anti-miR-181a or control sequence (SBI, Mountain View, Calif.) was used for permanent miR-181a knockdown experiments. Transduction-ready FIV-based pseudoviral particles were generated using pPACK-H1 Lentivector Packaging System together with 293TN cell line (SBI), at a titer of 1.06×10^9 IFU/ml. Control was Lenti-scramble Hairpin control pseudoviral particles at a titer of 1×10^9 IFU/ml. Cells were cultured in 12-well plates at a density of 1×10^5/well for 1 day, infected by pseudoviral particles (using a multiplicity of infection of 100 viruses per cell) and cultured for 72 hrs, then selected for puromycin (5 μg/ml) resistance for stable cell lines. Stably transduced cells were used for vitro and in vivo experiments.
ELISA: Conditioned medium was obtained 72 hours after transfection. Soluble VEGF-165 and MMP1 were detected using VEGF and MMP1 Immunoassay kits (R&D Systems, Minneapolis, Minn.) according to manufacturer's instructions. VEGF-165 and MMP1 levels were measured two times for each condition and with normalization to the number of cells at the end of the culture period. Each experiment was repeated three times. Twenty mg of xenograft tumor tissue in RIPA buffer containing proteinase inhibitors (Roche) was homogenized on ice using TissueRuptor (Qiagen). Tissue lysates were centrifuge at 14000 rpm for 30 min, supernatant saved at −80° C. for later use. VEGF-165 levels in xenograft tumor lysates were normalized to total protein.

[4] = system: chondrosarcoma cells; assay: CyQUANT cell proliferation assay; assay type: cell-based, human
Procedure: as §1
Cell proliferation assay: CyQUANT® Cell Proliferation Assay Kit according to manufacturer's protocol

[5] = system: thrombospondin-1 (TSP-1); assay: Angiogenesis antibody array in chondrosarcoma cells (TSP-1); assay type: cell-based, human; conditions: vs miR control; FIG. 3
Procedure: (§2) Angiogenesis antibody array: Human Angiogenesis Array Kit is a membrane-based sandwich immunoassay. Samples are mixed with a cocktail of biotinylated detection antibodies and then incubated with the array membrane which is spotted in duplicate with capture antibodies to specific target proteins. Captured proteins are visualized using chemiluminescent detection reagents. The signal produced is proportional to the amount of bound analyte. It is sensitive and economical tool to simultaneously detect the relative levels of 55 angiogenesis-related proteins in a single sample.

[6] = system: VEGF; assay: Angiogenesis antibody array in chondrosarcoma cells (VEGF); assay type: cell-based, human; conditions: vs miR control; FIG. 3
Procedure: as §2

[7] = system: placental growth factor (PLGF); assay: Angiogenesis antibody array in chondrosarcoma cells (PLGF); assay type: cell-based, human; conditions: vs miR control; FIG. 3
Procedure: as §2

[8] = system: Met; assay: Western blot of Met protein in chondrosarcoma cells; assay type: cell-based, human; conditions: vs miRNA control; FIG. 5
Text: Western blot: Cell or tumor lysates containing forty μg of protein were separated via SDS-PAGE (Bio-Rad, Hercules, Calif.) and probed with antibodies for VEGF (VEGFA), MMP-1, SSX, and actin (Santa Cruz Biotechnology, Santa Cruz, Calif.). The fluorescent signals were detected using a fluorescently-labeled secondary goat anti-rabbit antibody (Alexa Fluor 680) (Molecular Probes, Eugene, Oreg.) and analyzed on Licor Odyssey Scanner (LI-COR Biosciences, Lincoln, Nebr.). Western Blot analyses were performed as previously described with specific antibodies (IMGNEX, San Diego, Calif.) and actin antibody (Santa Cruz Biotechnology, Santa Cruz, Calif.). Protein concentrations were determined using the Quick Start Bradford protein assay (Bio-Rad).

**Q.** Which metastasis in mice [1] does the source give for `c1cc(CN2CCCNCCNCCCNCC2)ccc1CN1CCCNCCNCCCNCC1` [AMD3100, plerixafor] here?
**A.** Its metastasis in mice is “reduce metastasis”.

**Q.** What does the source list for “miR-34a: miR-34a mimic, the same sequence as miR-34a (guide AACAUUCAACGCUGUCGGUGAGU; synthetic mimic, further chemistry not given here)”?
**A.** SSX1 mRNA expression (qRT-PCR) [2]: decreased SSX1 mRNA expression; VEGF protein expression (ELISA, western blot) ([3]; 20 nM, vs control miR, control anti-miR or anti-miR-34a, FIG. 7A-7C, p<0.02, n=3): significantly decreased expression of VEGF protein; VEGF expression over time (ELISA) ([3]; secreted VEGF, vs control miR, FIG. 8, p<0.001): decreased VEGF expression over time; chondrosarcoma cell growth rates over time ([4]; miR-34a vs control miR, FIG. 9, p<0.001): significantly decreased growth rates over time

**Q.** For “miR-126: miScript miRNA mimic of miR-126; mature sequence SEQ ID NO: 188 CAUUAUUACUUUUGGUACGCG (listed as RNA, chemistry not given here)”, which “VEGF expression after transient transfection (ELISA)” value ([3]; 20 nM miR-126, 80 nM anti-miR-126, normoxic and hypoxic conditions, FIG. 2 bottom) is on record?
**A.** Its value is “reduced VEGF expression”.

**Q.** And the “VEGF expression (ELISA)” value ([3]; 10-80 nM of miR-126, normoxia and hypoxia (2% oxygen), FIG. 2 top)?
**A.** The value was “inhibited VEGF expression in a dose-dependent manner”.

**Q.** And the “TSP-1 expression (angiogenesis antibody array)” value [5]?
**A.** Its value is “reduces the expression”.

**Q.** What about the “VEGF expression (angiogenesis antibody array)” value [6] of the same compound?
**A.** The value was “reduces the expression”.

**Q.** What about the “PLGF expression (angiogenesis antibody array)” value [7] of the same compound?
**A.** The value was “reduces the expression”.

**Q.** What about the “Met protein expression (western blot)” value [8] of the same compound?
**A.** Its value is “expression of Met protein decreased”.

**Q.** What about the “chondrosarcoma cell growth over time” value ([4]; 20 nM miR-126 vs control miR, FIG. 6) of the same compound?
**A.** Its value is “grew more slowly over time”.
